Measured values published in ChEMBL document CHEMBL1201862, “PubChem BioAssay data set” (2004).
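Test compounds were applied to cells in 96-well plates for 48 hours at 5 doses. GI50 is the concentration that inhibits growth by half.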 The source made the active and inactive calls. Cut-off read from the data, not from the text of the source: active = GI50 up to about 1.1 µM and inactive = higher.

Assays:
Assay in all cases: NCI anticancer screen, dose series, 48 h
[1] = tested on: 786-0
[2] = tested on: BT-549
[3] = tested on: CCRF-CEM
[4] = tested on: DU-145
[5] = tested on: HCC 2998
[6] = tested on: HCT-116
[7] = tested on: HCT-15
[8] = tested on: HOP-92
[9] = tested on: LOX IMVI
[10] = tested on: MCF7
[11] = tested on: MDA-MB-435
[12] = tested on: MOLT-4
[13] = tested on: OVCAR-5
[14] = tested on: OVCAR-8
[15] = tested on: PC-3
[16] = tested on: SF-539
[17] = tested on: SK-MEL-28
[18] = tested on: SK-OV-3
[19] = tested on: SR
[20] = tested on: NCI/ADR-RES

Structure (SMILES) | GI50 [1] | GI50 [2] | GI50 [3] | GI50 [4] | GI50 [5] | GI50 [6] | GI50 [7] [µM] | GI50 [8] | GI50 [9] | GI50 [10] | GI50 [11] | GI50 [12] | GI50 [13] | GI50 [14] | GI50 [15] | GI50 [16] | GI50 [17] | GI50 [18] | GI50 [19] | GI50 [20]
COc1ccc(NC2Oc3cc4c(cc3C(c3cc(OC)c(OC)c(OC)c3)C2C)OCO4)cc1 (stereo not drawn) | 0.544 µM (active) | 1.04 µM (active) | 0.944 µM (active) | 0.574 µM (active) | 0.738 µM (active) | 0.364 µM (active) | 0.485 | 0.92 µM (active) | 0.476 µM (active) | 0.394 µM (active) | 0.0991 µM (active) | 0.422 µM (active) | 2.17 µM (inactive) | 0.655 µM (active) | 0.586 µM (active) | 0.222 µM (active) | 1.32 µM (inactive) | 0.948 µM (active) | 0.352 µM (active) | 
C/C1=C/C2=CC(C)C[C@@H]2C(=O)[C@]2(C)C(=O)CC(C)(C)[C@H]2CC1=O (stereo partly drawn) | > 50 µM (inactive) | > 50 µM (inactive) | 15 µM (inactive) | > 50 µM (inactive) | > 50 µM (inactive) | > 50 µM (inactive) | > 50 | > 50 µM (inactive) | > 50 µM (inactive) | > 50 µM (inactive) | > 50 µM (inactive) | > 50 µM (inactive) | > 50 µM (inactive) | > 50 µM (inactive) | > 50 µM (inactive) | > 50 µM (inactive) |  | > 50 µM (inactive) |  | > 50 µM (inactive)
Cc1c2c(C(N)=O)nccc2c(C)c2c1c1ccccc1n2Cc1ccccc1 | 3.86 µM (inactive) | 29.3 µM (inactive) | 23.3 µM (inactive) | 27.7 µM (inactive) | 26.4 µM (inactive) | 10 µM (inactive) | 16 | 4.93 µM (inactive) | 4.41 µM (inactive) | 37 µM (inactive) | 33.9 µM (inactive) | 32.7 µM (inactive) | 28.6 µM (inactive) | 10.6 µM (inactive) | 13 µM (inactive) | 19.1 µM (inactive) | 54.5 µM (inactive) | 22.9 µM (inactive) |  | 9.75 µM (inactive)
Cc1ccsc1/C=N/Nc1cnccn1 | > 100 µM (inactive) | > 100 µM (inactive) | > 100 µM (inactive) | > 100 µM (inactive) | > 100 µM (inactive) | > 100 µM (inactive) | > 100 | > 100 µM (inactive) | 76.4 µM (inactive) | 3.53 µM (inactive) | > 100 µM (inactive) | 78.7 µM (inactive) | 94 µM (inactive) | 27.4 µM (inactive) | > 100 µM (inactive) |  | > 100 µM (inactive) | > 100 µM (inactive) |  | > 100 µM (inactive)
C[C@@H]1CC[C@@H]2[C@@H](C1)O[C@@H]([C@@H](C)OCc1ccccc1)SC2(C)C | 19.2 µM (inactive) | 22.1 µM (inactive) | 16.6 µM (inactive) | 30.8 µM (inactive) | 17.9 µM (inactive) | 18.3 µM (inactive) | 19.5 |  | 21.2 µM (inactive) | 18.7 µM (inactive) | 16.9 µM (inactive) | 16.1 µM (inactive) | 18.3 µM (inactive) | 22.4 µM (inactive) | 19.5 µM (inactive) | 17.2 µM (inactive) | 24.7 µM (inactive) | 24.9 µM (inactive) | 17.5 µM (inactive) | 20.1 µM (inactive)
NC(=O)NCCSC1CCCCC1O (stereo not drawn) | > 100 µM (inactive) | > 100 µM (inactive) |  | > 100 µM (inactive) |  | > 100 µM (inactive) | > 100 | > 100 µM (inactive) | > 100 µM (inactive) | > 100 µM (inactive) | > 100 µM (inactive) | 26.2 µM (inactive) | > 100 µM (inactive) | > 100 µM (inactive) | > 100 µM (inactive) | > 100 µM (inactive) | > 100 µM (inactive) | > 100 µM (inactive) | > 100 µM (inactive) | > 100 µM (inactive)
O=C1CC(O)c2c1csc2Br (stereo not drawn) | 17.9 µM (inactive) | 23.2 µM (inactive) | 25.2 µM (inactive) | 25.9 µM (inactive) | 19.2 µM (inactive) | 18.5 µM (inactive) | 18.5 |  | 16.4 µM (inactive) | 19.8 µM (inactive) | 18.8 µM (inactive) | 20.3 µM (inactive) | > 100 µM (inactive) | 23.3 µM (inactive) | 32.4 µM (inactive) |  | 17.8 µM (inactive) | 53.8 µM (inactive) |  | 20.7 µM (inactive)
